Usually IC50 stands for the concentration that inhibits the measured activity by half.

24 molecules from patent US8143294B2, “2-sulfanyl-substituted imidazole derivatives and their use as cytokine inhibitors” (priority 2007, dated 2012) can be followed below.

Chain of p38α (Q16539 whole entry): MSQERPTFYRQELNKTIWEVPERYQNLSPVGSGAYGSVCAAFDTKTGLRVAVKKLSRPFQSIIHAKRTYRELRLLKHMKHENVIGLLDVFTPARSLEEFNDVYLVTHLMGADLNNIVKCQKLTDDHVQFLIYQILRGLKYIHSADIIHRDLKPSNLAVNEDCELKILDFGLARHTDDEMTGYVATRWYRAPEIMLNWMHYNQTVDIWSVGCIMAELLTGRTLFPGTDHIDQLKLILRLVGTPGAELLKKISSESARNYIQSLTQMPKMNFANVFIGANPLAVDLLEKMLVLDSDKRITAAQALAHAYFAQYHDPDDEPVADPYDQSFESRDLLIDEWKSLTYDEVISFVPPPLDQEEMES

This assay concerns the target p38α (Homo sapiens, UniProt Q16539). In words: P38α enzyme inhibition assay (ATF-2 phosphorylation ELISA). In kind it is biochemical. The settings on record: activated p38α, substrate ATF-2, ATP 100 μM, 60 minutes incubation, photometric readout 405 nm; read-out: Kinase assay IC50. Here is the method:
P38α Enzyme Inhibition Assay:
First the microtiter plates are coated using a dilution of ATF-2, substrate of p38α. Each step is followed by a threefold washing step. As the substrate doesn't cover the whole surface, blocking buffer is used to capture the free binding sites. In the meantime, the test compounds are diluted using the kinase buffer, which contains ATP [100 μM], phosphatase-inhibitors and the activated p38α.
The different dilutions of the test compounds are pipetted on the plate. ATP and the compounds compete for the enzyme's binding site. During an incubation time of 60 minutes ATF-2 is dual phosphorylated at Thr 69/71 by p38α kinase depending on its degree of inhibition. Next the first antibody is added into the wells. This antibody binds specifically at dual phosphorylated ATF-2 (Thr 69/71). Secondary antibody, that is conjugated with alkaline phosphatase, binds at the first one. Finally 4-NPP is given in the wells and after an incubation under cover of darkness it is photometrically analysed (405 nm).
(An ELISA detects its analyte on a solid surface through an enzyme-linked reagent.)
Turning to `CC(Nc1cc(-c2[nH]c(SCC(O)CO)nc2-c2ccc(F)cc2)ccn1)c1ccccc1` (stereo not drawn) [Example 8a, 3-(4-(4-Fluorophenyl)-5-(2-(1-phenylethylamino)pyridin-4-yl)-1H-imidazol-2-ylthio)propane-1,2-diol], the IC50 came to 42 nM. Take `OCC(O)CSc1nc(-c2ccc(F)cc2)c(-c2ccnc(NCc3ccccc3)c2)[nH]1` (stereo not drawn) [Example 8b, 3-(5-(2-(1-Benzylamino)pyridin-4-yl)-4-(4-fluorophenyl)-1H-imidazol-2-ylthio)propane-1,2-diol]: the IC50 was 87 nM.

As to `CC(C)CNc1cc(-c2[nH]c(SCC(O)CO)nc2-c2ccc(F)cc2)ccn1` (stereo not drawn) [Example 8c, 3-(4-(4-Fluorophenyl)-5-(2-(isobutylamino)pyridin-4-yl)-1H-imidazol-2-ylthio)propane-1,2-diol], the IC50 turned out to be 13 nM.

Consider `CCNc1cc(-c2[nH]c(SCC(O)CO)nc2-c2ccc(F)cc2)ccn1` (stereo not drawn) [Example 8d, 3-(5-(2-(Ethylamino)pyridin-4-yl)-4-(4-fluorophenyl)-1H-imidazol-2-ylthio)propane-1,2-diol], for which the IC50 was found to be 26 nM.

As to `CNc1cc(-c2[nH]c(SCC(O)CO)nc2-c2ccc(F)cc2)ccn1` (stereo not drawn) [Example 8e, 3-(4-(4-Fluorophenyl)-5-(2-(methylamino)pyridin-4-yl)-1H-imidazol-2-ylthio)propane-1,2-diol], the IC50 was determined as 100 nM. `CC(C)C(C)Nc1cc(-c2[nH]c(SCC(O)CO)nc2-c2ccc(F)cc2)ccn1` (stereo not drawn) [Example 8f, 3-(4-(4-Fluorophenyl)-5-(2-(3-methylbutan-2-ylamino)pyridin-4-yl)-1H-imidazol-2-ylthio)propane-1,2-diol]: the IC50 turned out to be 14 nM. With `CCC(C)Nc1cc(-c2[nH]c(SCC(O)CO)nc2-c2ccc(F)cc2)ccn1` (stereo not drawn) [Example 8g, 3-(4-(4-Fluorophenyl)-5-(2-(sec-butylamino)pyridin-4-yl)-1H-imidazol-2-ylthio)propane-1,2-diol], the IC50 was found to be 5.1 nM. Regarding `CC(C)Nc1cc(-c2[nH]c(SCC(O)CO)nc2-c2ccc(F)cc2)ccn1` (stereo not drawn) [Example 8h, 3-(4-(4-Fluorophenyl)-5-(2-(isopropylamino)pyridin-4-yl)-1H-imidazol-2-ylthio)propane-1,2-diol], the IC50 worked out at 3.6 nM. In the case of `OCC(O)CSc1nc(-c2ccc(F)cc2)c(-c2ccnc(NC3CCOCC3)c2)[nH]1` (stereo not drawn) [Example 8i, 3-(4-(4-Fluorophenyl)-5-(2-(tetrahydro-2H-pyran-4-ylamino)pyridin-4-yl)-1H-imidazol-2-ylthio)propane-1,2-diol], the IC50 was found to be 3.3 nM.

For the molecule `CC(C)C(C)Nc1cc(-c2[nH]c(SCCO)nc2-c2ccc(F)cc2)ccn1` (stereo not drawn) [Example 8k, 2-(4-(4-Fluorophenyl)-5-(2-(3-methylbutan-2-ylamino)pyridin-4-yl)-1H-imidazol-2-ylthio)ethanol], the IC50 came to 10 nM.

In the case of `CC(C)C(C)Nc1cc(-c2[nH]c(SC[C@H](O)CO)nc2-c2ccc(F)cc2)ccn1` (stereo partly drawn) [Example 8l, (2R)-3-(4-(4-Fluorophenyl)-5-(2-(3-methylbutan-2-ylamino)pyridin-4-yl)-1H-imidazol-2-ylthio)propane-1,2-diol], the IC50 is 17 nM.

For the molecule `CC(C)C(C)Nc1cc(-c2[nH]c(SC[C@@H](O)CO)nc2-c2ccc(F)cc2)ccn1` (stereo partly drawn) [Example 8m, (2S)-3-(4-(4-Fluorophenyl)-5-(2-(3-methylbutan-2-ylamino)pyridin-4-yl)-1H-imidazol-2-ylthio)propane-1,2-diol], the IC50 was 9.5 nM. As to `CC(C)Nc1cc(-c2[nH]c(SC[C@H](O)CO)nc2-c2ccc(F)cc2)ccn1` [Example 8n, (2R)-3-(4-(4-Fluorophenyl)-5-(2-(isopropylamino)pyridin-4-yl)-1H-imidazol-2-ylthio)propane-1,2-diol], the IC50 is 5.5 nM. For the molecule `CC(C)Nc1cc(-c2[nH]c(SC[C@@H](O)CO)nc2-c2ccc(F)cc2)ccn1` [Example 8o, (2S)-3-(4-(4-Fluorophenyl)-5-(2-(isopropylamino)pyridin-4-yl)-1H-imidazol-2-ylthio)propane-1,2-diol], the IC50 is 3.2 nM. Regarding `COC(=O)CSc1nc(-c2ccc(F)cc2)c(-c2ccnc(NC(C)c3ccccc3)c2)[nH]1` (stereo not drawn) [Example 8p, methyl 2-(4-(4-fluorophenyl)-5-(2-(1-phenylethylamino)pyridin-4-yl)-1H-imidazol-2-ylthio)acetate], the IC50 was found to be 35 nM. On to `CC(Nc1cc(-c2[nH]c(SCC(=O)O)nc2-c2ccc(F)cc2)ccn1)c1ccccc1` (stereo not drawn) [Example 8q, 2-(4-(4-fluorophenyl)-5-(2-(1-phenylethylamino)pyridin-4-yl)-1H-imidazol-2-ylthio)acetic acid], for which the IC50 was 36 nM. As to `CCOP(=O)(CSc1nc(-c2ccc(F)cc2)c(-c2ccnc(NC(C)c3ccccc3)c2)[nH]1)OCC` (stereo not drawn) [Example 8r, Diethyl (4-(4-fluorophenyl)-5-(2-(1-phenylethylamino)pyridin-4-yl)-1H-imidazol-2-ylthio)methylphosphonate], the IC50 came out at 400 nM. On to `COC(=O)CSc1nc(-c2ccc(F)cc2)c(-c2ccnc(NC(C)C(C)C)c2)[nH]1` (stereo not drawn) [Example 8s, Methyl 2-(4-(4-fluorophenyl)-5-(2-(3-methylbutan-2-ylamino)pyridin-4-yl)-1H-imidazol-2-ylthio)acetate], for which the IC50 was determined as 20 nM. For `COC(=O)CSc1nc(-c2ccc(F)cc2)c(-c2ccnc(NC(C)C)c2)[nH]1` [Example 8t, Methyl 2-(4-(4-fluorophenyl)-5-(2-(isopropylamino)pyridin-4-yl)-1H-imidazol-2-ylthio)acetate], the IC50 was found to be 3.6 nM. As to `CC(C)Nc1cc(-c2[nH]c(SCCO)nc2-c2ccc(F)cc2)ccn1` [Example 8u, 2-(4-(4-Fluorophenyl)-5-(2-(isopropylamino)pyridin-4-yl)-1H-imidazol-2-ylthio)ethanol], the IC50 came out at 3 nM. For the molecule `OCCSc1nc(-c2ccc(F)cc2)c(-c2ccnc(NC3CCOCC3)c2)[nH]1` [Example 8v, 2-(4-(4-Fluorophenyl)-5-(2-(tetrahydro-2H-pyran-4-ylamino)pyridin-4-yl)-1H-imidazol-2-ylthio)ethanol], the IC50 amounted to 2.3 nM.

In the case of `OCCSc1nc(-c2ccc(F)cc2)c(-c2ccnc(N[C@H]3CC[C@H](O)CC3)c2)[nH]1` [Example 8w, (1R,4R)-4-(4-(4-(4-Fluorophenyl)-2-(2-hydroxyethylthio)-1H-imidazol-5-yl)pyridin-2-ylamino)cyclohexanol], the IC50 was found to be 2 nM. For `CC(Nc1cc(-c2[nH]c(SCCO)nc2-c2ccc(F)cc2)ccn1)c1ccccc1` (stereo not drawn) [Example 8x, 2-(4-(4-Fluorophenyl)-5-(2-(1-phenylethylamino)pyridin-4-yl)-1H-imidazol-2-ylthio)ethanol] the value was 14 nM; for `OCC(O)CSc1nc(-c2ccc(F)cc2)c(-c2ccncc2)[nH]1` (stereo not drawn) [reference compound], 3600 nM.
